# Laboratory results: article PMC9757636, “The effectiveness of newly synthesized quaternary ammonium salts differing in chain length and type of counterion against priority human pathogens” (Scientific Reports, 2022)
# Experiments:
# [1] = test system: S. epidermidis ATCC 35984; test: Adhesion to stainless steel; assay type: cell-based, Staphylococcus epidermidis; details: 1280 µM
# P. aeruginosa PAO1 [2] = test: Adhesion to stainless steel; assay type: cell-based, Pseudomonas aeruginosa; details: P. aeruginosa PAO1; 1280 µM
# [3] = Critical micelle concentration by conductometric measurements; assay type: physicochemical; details: aqueous solution, 25 °C
# Protocol: Values of critical micelle concentrations (CMC) of cationic surfactants were measured conductrometrically. N5721 conductometer (Tel-Eko Projekt sp z o.o., Poland), equipped with N5981 probe, was calibrated using 0.1 M, 0.01 M and 0.001 M KCl aqueous solutions (conductivities equal to 1.287 S/m, 0.141 S/m and 0.0147 S/m, respectively) and used without temperature compensation mode (constant temperature 25 °C was kept during all calibration procedures and measurements). Values of specific conductivities of at least 15 different concentrations for each surfactant were measured and plotted versus concentration; the discontinuity point was used to determine critical micelle concentration.
# P. aeruginosa PAO1 [4] = test: MIC/MBC microdilution; assay type: cell-based, Pseudomonas aeruginosa; details: Pseudomonas aeruginosa; for MBC: 99.9% reduction, read-out: Minimal bactericidal concentration (*MBC); for MIC: 24 h, 37 °C, >90% growth inhibition, read-out: Minimal inhibitory concentration (MIC)
# Protocol: (§1) The minimum inhibitory concentration (MIC) of the tested monomeric QAS was performed using the microdilution method according to CLSI recommendation (M27-A3). Concentrations from 10 to 1280 µM were analyzed. Strains were incubated with or without compounds (growth control) for 24 h at 37 °C. Three independent replicates were performed. The MIC value was determined spectrophotometrically and the concentration that inhibited more than 90% of growth was determined. Optical density was measured at λ = 590 nm using a 96-well microplate reader (Bio-Rad Universal Hood II).
# (§2) To determine the minimum bactericidal concentration (MBC), 10 µL of bacterial suspension incubated with monomeric QAS (MIC concentration and two times higher) was transferred to plates with LB (1% tryptone, 1% yeast extract, 0.5% NaCl) medium. […] The concentration that reduced 99.9% of microbial growth was determined as MBC[54].
# P. aeruginosa ATCC 27853 = test: MIC/MBC microdilution; assay type: cell-based, Pseudomonas aeruginosa; details: Pseudomonas aeruginosa; for MIC: ATCC27853, 24 h, P. aeruginosa ATCC 27853, 24 h, 37 °C, >90% growth inhibition, read-out: Minimal inhibitory concentration (MIC); for MBC: ATCC27853, P. aeruginosa ATCC 27853, 99.9% reduction, read-out: Minimal bactericidal concentration (*MBC)
# Protocol: as §1, §2
# E. coli H64 = test: MIC/MBC microdilution; assay type: cell-based, Escherichia coli; details: Escherichia coli; for MIC: H64, 24 h, E. coli H64, 24 h, 37 °C, >90% growth inhibition, read-out: Minimal inhibitory concentration (MIC); for MBC: H64, E. coli H64, 99.9% reduction, read-out: Minimal bactericidal concentration (*MBC)
# Protocol: as §1, §2
# E. coli ATCC 11229 = test: MIC/MBC microdilution; assay type: cell-based, Escherichia coli
# Protocol: as §1, §2
# [5] = test system: Salmonella typhimurium TA100; test: Mutagenicity (Ames test); assay type: cell-based; details: for Number of colonies: ± SD
# Protocol: (§3) Two reference strains of Salmonella Typhimurium TA98 and Salmonella Typhimurium TA100, deficient in histidine synthesis, were used for this study according to the method proposed by Ames et al. with modifications. […] The mixture was mixed and poured onto a Davis minimal medium plate. The mixture without the test compound was used as a negative control. The positive control was a mixture of bacterial culture, biotin-histidine solution, and sodium azide (at a concentration of 15 μg/mL for strain TA100) or acriflavine (at a concentration of 100 μg/mL for strain TA98). Plates were incubated for 48 h at 37 °C, and then colonies were counted. The mutagenicity ratio (MR), the ratio of the number of revertants grown in the presence of the test compound to the number of spontaneously occurring revertants (negative control), was calculated. A mutagenic ratio equal to or greater than 1.7 indicates the mutagenic potential of the tested compounds. The study was performed in three times.
# [6] = test system: Salmonella typhimurium TA98; test: Mutagenicity (Ames test); assay type: cell-based; details: for Number of colonies: ± SD
# Protocol: as §3
# [7] = test system: S. epidermidis ATCC 35984 biofilm; test: Biofilm eradication; assay type: cell-based, Staphylococcus epidermidis; details: 10 µM, 4 h
# Protocol: (§4) Biofilm eradication assay was performed according to the method of Christensen et al. with modifications. A standardized bacterial (OD = 0.6) suspension of 100 µL was spotted into a 96-well polystyrene plate. They were incubated for 24 h at 37 °C. Cultures were removed, the plate was washed and then concentrations of QAS ([…]) were added, incubated for 4 h at 37 °C with 100 rpm shaking. The wells were washed with miliQ and fixed at 60 °C for 20 min. The wells were […] with 0.1% crystal violet solution for 5 min. The wells were washed with miliQ until the unfixed dye was completely eluted. The absorbance at λ = 590 nm was measured using a reader (Bio-Rad Universal Hood II). The positive control was an untreated biofilm. Three independent test trials were performed.
# [8] = test system: S. epidermidis ATCC 35984; test: MIC/MBC microdilution; assay type: cell-based, Staphylococcus epidermidis; details: Staphylococcus epidermidis; for MBC: ATCC35984, 99.9% reduction, read-out: Minimal bactericidal concentration (*MBC); for MIC: ATCC35984, 24 h, 37 °C, >90% growth inhibition, read-out: Minimal inhibitory concentration (MIC)
# Protocol: as §1, §2
# S. epidermidis SI8 = test: MIC/MBC microdilution; assay type: cell-based, Staphylococcus epidermidis; details: Staphylococcus epidermidis; for MBC: 99.9% reduction, read-out: Minimal bactericidal concentration (*MBC); for MIC: 24 h, 37 °C, >90% growth inhibition, read-out: Minimal inhibitory concentration (MIC)
# Protocol: as §1, §2
# S. epidermidis B374 = test: MIC/MBC microdilution; assay type: cell-based, Staphylococcus epidermidis
# Protocol: as §1, §2
# S. aureus MRSA R98 = test: MIC/MBC microdilution; assay type: cell-based, Staphylococcus aureus; details: Staphylococcus aureus, MRSA; for MBC: 99.9% reduction, read-out: Minimal bactericidal concentration (*MBC); for MIC: 24 h, 37 °C, >90% growth inhibition, read-out: Minimal inhibitory concentration (MIC)
# Protocol: as §1, §2
# S. aureus ATCC 6538 = test: MIC/MBC microdilution; assay type: cell-based, Staphylococcus aureus; details: Staphylococcus aureus; for MIC: ATCC6538, 24 h, S. aureus ATCC 6538, 24 h, 37 °C, >90% growth inhibition, read-out: Minimal inhibitory concentration (MIC); for MBC: ATCC6538, S. aureus ATCC 6538, 99.9% reduction, read-out: Minimal bactericidal concentration (*MBC)
# Protocol: as §1, §2
# [9] = test system: S. epidermidis B374 biofilm; test: Biofilm eradication; assay type: cell-based, Staphylococcus epidermidis; details: 160 µM, 4 h
# Protocol: as §4
compound,measurement,setting,value
CC(=O)[O-].CCCCCCCCCCCC(=O)N(C)CCC[N+](C)(C)C [AcC12],adhesion to stainless steel (remaining),[1],13 to 30%
same,adhesion to stainless steel (remaining),P. aeruginosa PAO1 [2],13 to 30%
same,CMC,[3],0.018 mol/L
same,MBC,P. aeruginosa PAO1 [4],> 1280 µM
same,MIC,P. aeruginosa PAO1 [4],> 1280 µM
same,MIC,P. aeruginosa ATCC 27853,> 1280 µM
same,MBC,P. aeruginosa ATCC 27853,> 1280 µM
same,MIC,E. coli H64,1280 µM
same,MBC,E. coli H64,1280 µM
same,MIC,"E. coli ATCC 11229; Escherichia coli, ATCC11229, 24 h, E. coli ATCC 11229, 24 h, 37 °C, >90% growth inhibition, read-out: Minimal inhibitory concentration (MIC)",1280 µM
same,MBC,"E. coli ATCC 11229; Escherichia coli, ATCC11229, E. coli ATCC 11229, 99.9% reduction, read-out: Minimal bactericidal concentration (*MBC)",1280 µM
same,Mutagenicity index,[5]; ¼ MIC,0.94
same,Number of colonies,[5]; ¼ MIC,264.7 ± 15
same,Mutagenicity index,[5]; ½ MIC,1.08
same,Number of colonies,[5]; ½ MIC,304 ± 11.3
same,Mutagenicity index,[6]; ¼ MIC,0.96
same,Number of colonies,[6]; ¼ MIC,22 ± 5.3
same,Mutagenicity index,[6]; ½ MIC,0.91
same,Number of colonies,[6]; ½ MIC,20.8 ± 4.4
same,biofilm destruction,[7],approximately 40%
same,MBC,[8],640 µM
same,MIC,[8],640 µM
same,MBC,S. epidermidis SI8,640 µM
same,MIC,S. epidermidis SI8,640 µM
same,MIC,"S. epidermidis B374; Staphylococcus epidermidis, B374, 24 h, S. epidermidis B374, 24 h, 37 °C, >90% growth inhibition, read-out: Minimal inhibitory concentration (MIC)",320 µM
same,MBC,"S. epidermidis B374; Staphylococcus epidermidis, B374, S. epidermidis B374, 99.9% reduction, read-out: Minimal bactericidal concentration (*MBC)",320 µM
same,MBC,S. aureus MRSA R98,640 µM
same,MIC,S. aureus MRSA R98,640 µM
same,MIC,S. aureus ATCC 6538,1280 µM
same,MBC,S. aureus ATCC 6538,1280 µM
"CC(=O)[O-].CCCCCCCCCCCCCC(=O)N(C)CCC[N+](C)(C)C [AcC14, [(3-tetradecyilomethylo-amine)propyl] trimethylammonium acetate]",adhesion to stainless steel (remaining),[1],15%
same,CMC,[3],0.0054 mol/L
same,MBC,P. aeruginosa PAO1 [4],> 1280 µM
same,MIC,P. aeruginosa PAO1 [4],> 1280 µM
same,MIC,P. aeruginosa ATCC 27853,1280 µM
same,MBC,P. aeruginosa ATCC 27853,> 1280 µM
same,MIC,E. coli H64,160 µM
same,MBC,E. coli H64,160 µM
same,Minimal bactericidal concentration (*MBC),"E. coli ATCC 11229; E. coli ATCC 11229, 99.9% reduction",320 *320 µM
same,Minimal inhibitory concentration (MIC),"E. coli ATCC 11229; E. coli ATCC 11229, 24 h, 37 °C, >90% growth inhibition",320 *320 µM
same,Mutagenicity index,[5]; ¼ MIC,0.97
same,Number of colonies,[5]; ¼ MIC,194 ± 1
same,Mutagenicity index,[5]; ½ MIC,0.95
same,Number of colonies,[5]; ½ MIC,189 ± 1.4
same,Mutagenicity index,[6]; ¼ MIC,0.96
same,Number of colonies,[6]; ¼ MIC,24.5 ± 3.5
same,Mutagenicity index,[6]; ½ MIC,1.01
same,Number of colonies,[6]; ½ MIC,25.7 ± 4
same,biofilm eradication,[9],70–80%
same,MBC,[8],160 µM
same,MIC,[8],160 µM
same,MBC,S. epidermidis SI8,160 µM
same,MIC,S. epidermidis SI8,160 µM
same,Minimal bactericidal concentration (*MBC),"S. epidermidis B374; S. epidermidis B374, 99.9% reduction",40 *40 µM
same,Minimal inhibitory concentration (MIC),"S. epidermidis B374; S. epidermidis B374, 24 h, 37 °C, >90% growth inhibition",40 *40 µM
same,MBC,S. aureus MRSA R98,160 µM
same,MIC,S. aureus MRSA R98,160 µM
same,MIC,S. aureus ATCC 6538,160 µM
same,MBC,S. aureus ATCC 6538,160 µM
